These results are taken from patent US11897880B2, “7,8-dihydrobenzo[e]pyrido[3,4-c]azocine-2,5(3H,6H)-dione derivatives useful as a factor XIa inhibitors” (Janssen Pharmaceutica NV, priority 2021, dated 2024).

Read-outs that look alike come from different tables or passages of the source.

In one test the target is Factor XIa (Homo sapiens, UniProt P03951). As to the kind of experiment: Factor XIa inhibition assay utilizing a fluorophore-quencher pair peptide substrate (FLINT). Format: biochemical. The note with it: for Ki: read-out: FXIa Ki; for IC50: read-out: FXIa IC50. The source says:
Biological Example 1: Factor XIa Inhibition Assay Utilizing a Fluorophore-Quencher Pair Peptide Substrate
A fluorescence intensity (FLINT) based assay was used to monitor inhibition of Factor XIa. The peptide substrate, 5Fam-KLTRAETV-K5Tamra (purchased from New England Peptide) was chosen based on the FXI sequence. Conversion of zymogen FXI to its activated form, FXIa, occurs by proteolytic cleavage by […] at two sites, Arg146 and Arg180. The custom peptide used in this assay was based on the Arg146 cleavage site of FXI. The peptide substrate was designed with a fluorophore-quencher pair, where the fluorescence is quenched until FXIa cleaves the 8-mer peptide after the Arg residue.
The Factor XIa FLINT assay was used with the following 5Fam-KLTRAETV-K5Tamra assay buffer: 50 mM Tris, pH 7.5, 100 mM NaCl, 5 mM CaCl2), 0.1 mg/mL BSA, 0.03% CHAPS. Assay buffer was prepared by mixing all ingredients fresh. 5Fam-KLTRAETV-K5Tamra peptide substrate was first prepared at 10 mM in 100% DMSO, then diluted to 3 mM in 100% DMSO. Assay buffer was then added directly to the 3 mM stock of substrate to prepare the 30 μM 2× working concentration (15 μM final concentration). The 2× Factor XIa stock solution was prepared by diluting 6.562 μM stock in 1× assay buffer for a […].
Test compound(s) were run in an 11-point, 3-fold serial dilution with a final top compound concentration of 100 nM. Final DMSO in assay was 2%. FXIa was preincubated with compound for 30-minutes and then substrate was added to initiate the reaction. The assay was run with kinetic (KIN) reads at 5 min intervals over 30 minutes. The time course was linear using […] FXIa greater than 30 minutes. More specifically, the assay was run as follows: • 100 nL of 0.01 mM test compound was dispensed into black 384-well non-binding Greiner BioOne 784900 plate for 0.1 μM final concentration; • 5 μL of 1× assay buffer was dispensed to column 24 (low control) and 5 μL 2× Factor XIa solution was dispensed to columns 1-23 (column 23 high control); • the plate was centrifuged with a “cover” plate at 500 rpm for 1 min • the plate was pre-incubated for 30 minutes at room temperature with plate covered; • 5 μL of 2×5Fam-KLTRAETV-K5Tamra peptide substrate was dispensed into the entire plate, columns 1-24; • the plate was centrifuged with a “cover” plate at 500 rpm for 1 min; • the plate was read monitoring fluorescence intensity on the BMG PHERAStar at room temperature, using fluorescence module 485 nm/520 nm.
Percent inhibition (IC50) curves were generated per compound tested, and data was analyzed using a 4-parameter logistic fit using GeneData Screener. The relative fluorescence unit (RFU) values were normalized to percent inhibition using the following equation: % inhibition=((HC−LC)−(compound−LC)/(HC−LC))*100
where LC−low control=mean signal of no Factor XIa or 100% inhibition of Factor XIa; HC−high control=mean signal of Factor XIa+5Fam-KLTRAETV-K5Tamra peptide substrate with DMSO only.
An 11-point dose response curve for the test compound(s) was generated using GENDATA to determine IC50 value based on the following equation: Y=Bottom+(Top−Bottom)/(1+10^((log IC50−X)*HillSlope))
where Y is the % inhibition in the presence of X inhibitor concentration, Top=high control=mean signal of Factor XIa+5Fam-KLTRAETV-K5Tamra peptide substrate with DMSO only; Bottom=low control−mean signal of no Factor XIa or 100% inhibition of Factor XIa; HillSlope−Hill coefficient; and IC50=concentration of compound with 50% inhibition in relation to top/high control.
(§1) Representative compounds of formula (I) of the present invention were tested according to the procedure described in Biological Example 1 and Biological Example 2 above, with results as listed in Table 3, below.

A further test deals with human plasma kallikrein (Homo sapiens, UniProt P03952). In words: Kallikrein inhibition assay utilizing a quenched AMC peptide substrate (FLINT). The test is classed as biochemical. The note with it: 30 min preincubation, 50 μM Z-Gly-Pro-Arg-AMC, 2 nM kallikrein.
Sequence of human plasma kallikrein (P03952 391-638 limits assumed): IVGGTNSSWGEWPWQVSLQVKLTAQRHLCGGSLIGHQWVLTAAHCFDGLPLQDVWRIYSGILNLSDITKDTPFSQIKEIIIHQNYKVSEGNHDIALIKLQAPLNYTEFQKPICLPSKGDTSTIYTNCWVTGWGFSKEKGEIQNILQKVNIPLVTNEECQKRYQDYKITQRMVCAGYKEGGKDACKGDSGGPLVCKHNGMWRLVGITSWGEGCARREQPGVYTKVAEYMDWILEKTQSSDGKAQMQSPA
Sequence of human plasma kallikrein (P03952 20-390 partner limits assumed): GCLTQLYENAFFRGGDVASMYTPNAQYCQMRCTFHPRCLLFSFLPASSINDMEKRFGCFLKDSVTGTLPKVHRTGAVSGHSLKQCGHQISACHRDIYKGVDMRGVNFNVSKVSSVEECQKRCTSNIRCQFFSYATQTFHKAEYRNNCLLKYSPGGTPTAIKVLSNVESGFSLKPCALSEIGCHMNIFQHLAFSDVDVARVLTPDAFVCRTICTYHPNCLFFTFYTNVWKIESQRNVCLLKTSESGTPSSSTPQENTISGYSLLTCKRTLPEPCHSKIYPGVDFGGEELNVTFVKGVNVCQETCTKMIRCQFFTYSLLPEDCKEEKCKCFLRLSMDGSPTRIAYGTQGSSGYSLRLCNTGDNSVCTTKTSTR
Source text: Biological Example 2: Kallikrein Inhibition Assay Utilizing a Quenched AMC Peptide Substrate
A fluorescence intensity (FLINT) based assay was used to monitor inhibition of human plasma kallikrein. The peptide substrate, Z-Gly-Pro-Arg-AMC (Purchased from Bachem; Catalog #1-1150) was chosen based on its relatively low KM for kallikrein which enables running the assay at lower substrate concentrations to control background fluorescence.
The Kallikrein FLINT assay was used with the following Z-Gly-Pro-Arg-AMC assay buffer: 50 mM Tris, pH 7.5, 100 mM NaCl, 5 mM CaCl2), 0.1 mg/mL BSA, 0.03% CHAPS. Assay buffer was prepared by mixing all ingredients fresh. 2× Z-Gly-Pro-Arg-AMC peptide substrate was prepared by diluting 10 mM stock into 1× assay buffer for a 100 μM working concentration (50 μM final concentration). The 2× kallikrein stock solution was prepared by diluting 14.76 μM stock in 1× assay buffer for a 4 nM working stock solution (2 nM final concentration).
Test compound(s) were run in an 11-point, 3-fold serial dilution with a final top compound concentration of 1 μM. Final DMSO in assay was 2%. Plasma kallikrein was pre-incubated for 30-minute with compound and then 50 μM substrate was added to initiate the reaction. The assay was run with kinetic (KIN) reads at 5 min intervals over 30 minutes. The time course was linear using 2 nM kallikrein greater than 30 minutes. More specifically, the assay was run as follows: • 100 nL of 0.1 mM test compound was dispensed into black 384-well non-binding Greiner BioOne 784900 plate for 1 μM final concentration; • 5 μL of 1× assay buffer was dispensed to columns 24 (low control) and 5 μL 2× human kallikrein enzyme solution was dispensed to columns 1-23 (column 23 high control); • the plate was centrifuged with a “cover” plate at 500 rpm for 1 min • the plate was pre-incubated for 30 minutes at room temperature with plate covered; • 5 μL of 2× Z-Gly-Pro-Arg-AMC peptide substrate was dispensed into the entire plate, columns 1-24; • the plate was centrifuged with a “cover” plate at 500 rpm for 1 min; the plate was read monitoring fluorescence intensity on the BMG PHERAStar at room temperature, using fluorescence module 340 nm/440 nm.
Percent inhibition (IC50) curves were generated per compound tested, and data was analyzed using a 4-parameter logistic fit using GeneData Screener. The relative fluorescence unit (RFU) values were normalized to percent inhibition using the following equation: % inhibition=((HC−LC)−(compound−LC)/(HC−LC))*100 where LC—low control=mean signal of human kallikrein enzyme or 100% inhibition of human kallikrein enzyme; HC—high control=mean signal of […]+Z-Gly-Pro-Arg-AMC peptide substrate with DMSO only.
An 11-point dose response curve for the test compound(s) was generated using GENDATA to determine IC50 value based on the following equation: Y=Bottom+(Top−Bottom)/(1+10^((log IC50−X)*HillSlope)) • where Y is the % inhibition in the presence of X inhibitor concentration, Top=high control=mean signal of human kallikrein enzyme+Z-Gly-Pro-Arg-AMC peptide substrate with DMSO only; Bottom=low control−mean signal of no human kallikrein enzyme or 100% inhibition of human kallikrein enzyme; HillSlope—Hill coefficient; and IC50=concentration of compound with 50% inhibition in relation to top/high control.
as §1

Where [1] appears, read: cells that print μM themselves in the nM column.
[2] abbreviates: cells that print μM themselves in the nM column, same assay conditions.
[3] abbreviates: 30 min preincubation, 5Fam-KLTRAETV-K5Tamra substrate 15 μM final, kinetic reads.

Sequence of Factor XIa (P03951 388-625 limits assumed): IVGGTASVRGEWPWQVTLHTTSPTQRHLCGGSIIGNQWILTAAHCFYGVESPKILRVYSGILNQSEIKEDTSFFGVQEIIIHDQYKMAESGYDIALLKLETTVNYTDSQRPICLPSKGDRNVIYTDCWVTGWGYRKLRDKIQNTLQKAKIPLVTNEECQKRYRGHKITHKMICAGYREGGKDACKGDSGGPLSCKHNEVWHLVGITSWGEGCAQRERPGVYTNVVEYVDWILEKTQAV
Sequence of Factor XIa (P03951 19-387 partner limits assumed): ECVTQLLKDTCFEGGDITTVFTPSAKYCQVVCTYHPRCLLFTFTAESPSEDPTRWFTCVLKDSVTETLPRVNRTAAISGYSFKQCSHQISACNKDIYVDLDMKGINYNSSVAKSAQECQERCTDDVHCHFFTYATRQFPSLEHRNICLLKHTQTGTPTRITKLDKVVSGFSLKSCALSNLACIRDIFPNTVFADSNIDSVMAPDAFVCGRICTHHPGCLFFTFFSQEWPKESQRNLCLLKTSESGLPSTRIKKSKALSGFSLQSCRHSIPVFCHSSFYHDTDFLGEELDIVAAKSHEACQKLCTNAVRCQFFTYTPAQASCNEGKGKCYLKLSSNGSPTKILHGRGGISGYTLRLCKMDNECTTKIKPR

As usually defined, the Ki is a dissociation constant, usually derived from enzyme kinetics or from competition with a known ligand. As a reminder, the IC50 is the point on the concentration scale where inhibition reaches its midpoint. As to `Nc1ccc(-c2cnc([C@@H]3CCc4c5c(cc(=O)n43)-c3c(ccc(Cl)c3F)CC3(CC3)N(CCO)C5=O)[nH]2)c(F)n1` (single isomer, unassigned) [Compound 9, (S*)-12-(5-(6-amino-2-fluoropyridin-3-yl)-1H-imidazol-2-yl)-7-chloro-8-fluoro-2-(2-hydroxyethyl)-13,14-dihydro-2H-spiro[benzo[5,6]azocino[4,3-g]indolizine-3,1′-cyclopropane]-1,10(4H,12H)-dione], the Ki at Factor XIa (setting [1]) amounted to 3.29 µM. Moreover, the IC50 on Factor XIa (setting [2]) was 6.58 µM; against human plasma kallikrein, > 10000 nM.
As for `Nc1ccc(-c2cnc([C@H]3CCc4c5c(cc(=O)n43)-c3c(ccc(Cl)c3F)CC3(CC3)N(CCO)C5=O)[nH]2)c(F)n1` (single isomer, unassigned) [Compound 10, (R*)-12-(5-(6-amino-2-fluoropyridin-3-yl)-1H-imidazol-2-yl)-7-chloro-8-fluoro-2-(2-hydroxyethyl)-13,14-dihydro-2H-spiro[benzo[5,6]azocino[4,3-g]indolizine-3,1′-cyclopropane]-1,10(4H,12H)-dione], the figures for the IC50 at Factor XIa (setting [2]) and against human plasma kallikrein were 1.85 µM and > 10000 nM, respectively. Moreover, on Factor XIa, the Ki is 0.926 µM.
Consider `Nc1ccc(-c2cnc([C@@H]3CCc4c5c(cc(=O)n43)-c3c(ccc(Cl)c3F)CC3(CC3)N(CCO)C5=O)[nH]2)c(F)n1` (single isomer, unassigned) [Compound 11, (S*)-12-(5-(6-amino-2-fluoropyridin-3-yl)-1H-imidazol-2-yl)-7-chloro-8-fluoro-2-(2-hydroxyethyl)-13,14-dihydro-2H-spiro[benzo[5,6]azocino[4,3-g]indolizine-3,1′-cyclopropane]-1,10(4H,12H)-dione], for which the IC50 at Factor XIa (setting [2]) is 1.17 µM; on human plasma kallikrein it was > 10000 nM. Moreover, at Factor XIa, the Ki worked out at 0.588 µM.
For `Nc1ccc(-c2cnc([C@H]3CCc4c5c(cc(=O)n43)-c3c(ccc(Cl)c3F)CC3(CC3)N(CCO)C5=O)[nH]2)c(F)n1` (single isomer, unassigned) [Compound 12, (R*)-12-(5-(6-amino-2-fluoropyridin-3-yl)-1H-imidazol-2-yl)-7-chloro-8-fluoro-2-(2-hydroxyethyl)-13,14-dihydro-2H-spiro[benzo[5,6]azocino[4,3-g]indolizine-3,1′-cyclopropane]-1,10(4H,12H)-dione], the IC50 on Factor XIa (setting [3]) is 0.0692 µM; against human plasma kallikrein it was > 10000 nM. For the same compound, the Ki on Factor XIa is 0.0346 µM.
Taken in the same sequence, the figures for `O=C1NC2(CC2)Cc2ccc(Cl)c(F)c2-c2cc(=O)n3c(c21)CC[C@H]3c1ncc(-c2ccc3[nH]ccc3c2)[nH]1` (single isomer, unassigned) [Compound 13, (S*)-12-(5-(1H-indol-5-yl)-1H-imidazol-2-yl)-7-chloro-8-fluoro-13,14-dihydro-2H-spiro[benzo[5,6]azocino[4,3-g]indolizine-3,1′-cyclopropane]-1,10(4H,12H)-dione] were 0.002 µM, 70 nM and 0.001 µM.
As for `O=C1NC2(CC2)Cc2ccc(Cl)c(F)c2-c2cc(=O)n3c(c21)CC[C@@H]3c1ncc(-c2ccc3[nH]ccc3c2)[nH]1` (single isomer, unassigned) [Compound 14, (R*)-12-(5-(1H-indol-5-yl)-1H-imidazol-2-yl)-7-chloro-8-fluoro-13,14-dihydro-2H-spiro[benzo[5,6]azocino[4,3-g]indolizine-3,1′-cyclopropane]-1,10(4H,12H)-dione], the inhibitory constant (Ki) on Factor XIa (setting [1]) was determined as 1.02 µM. Also, the IC50 was 2.03 µM at Factor XIa (setting [2]) and > 10000 nM on human plasma kallikrein.
On to `O=C1NC2(CC2)Cc2ccc(Cl)c(F)c2-c2cc(=O)n3c(c21)CC[C@H]3c1ncc(-c2ccc3[nH]ccc3c2)[nH]1` (single isomer, unassigned) [Compound 16, (S*)-12-(5-(1H-indol-5-yl)-1H-imidazol-2-yl)-7-chloro-8-fluoro-13,14-dihydro-2H-spiro[benzo[5,6]azocino[4,3-g]indolizine-3,1′-cyclopropane]-1,10(4H,12H)-dione], for which the IC50 was 1.07 µM on Factor XIa (setting [2]) and > 10000 nM at human plasma kallikrein. Moreover, the Ki at Factor XIa was found to be 0.535 µM.
